# Measured values published in patent US8617872B2, “Compositions for culturing spirochetes” (priority 2000, dated 2013).
# How the values were obtained:
# Format in all cases: cell-based
# Treponema isolate = assay: Antimicrobial susceptibility test (MICROSCAN plates) of a patient's Treponema isolate; settings: Treponema infected patient's isolate; MICROSCAN plates, 35° C., 16-20 hours
# Description: For susceptibility testing, the organisms harvested could be assayed using any suitable susceptibility assay (See, Example 7). In some embodiments of the present invention, MICROSCAN antibiotic susceptibility plates were inoculated and incubated. Following incubations, plates were scanned for growth and respective sensitivity reaction. […] For the results to be considered reliable, the no growth of organisms was accepted in the negative control well, while the positive control well had to have sufficient growth to be read. In some embodiments of the present invention, to confirm the presence or absence of growing spirochetes in the growth well, aliquots from the growth well were reinoculated with fresh growth media and after an incubation time (e.g., 7-10 days) the presence of the organisms was confirmed (e.g., by phase contrast microscopy or direct fluorescent antibody staining).
# (§1) This example describes the preparation of a pellet used for antimicrobial susceptibility testing of a culture sample. The procedure begins with a culture (e.g., prepared in the manner described in Example 2), where serum from a patient is inoculated in GSI-1 media and allowed to grow. In order to form pellet, an aliquot of this culture sample is placed in a microcentrifuge tube along with 10% SDS solution, and centrifuged at 14,000 g to disrupt the spirochetes and maximize the number of available eptiopic sites. The disrupted spirochetes were then cultured in an alternative growth medium made up of one part GSI-1 medium, one part 6.5% lactalbumin hydrolysate, one part 2% brain heart infusion, one part 10% pluronic fluid, and one part of the isolated (disrupted) spirochetes. This inoculated alternative growth medium was then allowed to incubate in the closed micro centrifuge tube until a distinctive pellet was observed (typically 7-14 days).
# This example describes an antimicrobial susceptibility test performed for a human patient. The patient had previously been testing using GSI-1 medium (e.g., as described in Example 2) for the presence of any spirochetes. […] This culture sample was then transferred to a microcentrifuge tube, and a pellet for antimicrobial susceptibility testing was prepared as described in Example 6.
# (§2) Following the observation of pellet formation, the tube was vortexed and incubated at 35° C. until a MacFarlane standard of between 8 to 12% turbidity was achieved. MICROSCAN antibiotic susceptibility microtiter plates were then inoculated with (e.g., 110 μl of) inoculum and allowed to incubate at 35° C. for 16-20 hours. The microtiter plates were then scanned for growth and respective sensitivity reaction (both the control well and the growth well). Table 2 below lists the various antimicrobials tested with this sample and whether growth of the organism was inhibited (susceptible) or whether the growth of the organism was not inhibited (resistant).
# Leptospira [1] = assay: Susceptibility testing of Leptospira isolated from a patient with symptoms of rheumatoid arthritis; settings: for Antibiotic Susceptibility Results, URINE: Leptospira culture from urine of rheumatoid arthritis patient; for Antibiotic Susceptibility Results, SERUM: Leptospira culture from serum of rheumatoid arthritis patient
# Excerpt: as §1
# as §2, with “well).” for “well). Table 2 below lists the various antimicrobials tested with this sample and whether growth of the organism was inhibited (susceptible) or whether the growth of the organism was not inhibited (resistant).”
# This Example describes the diagnosis and treatment of a human patient with symptoms of rheumatoid arthritis. In particular, serum and urine samples from this patient were initially cultured on GSI-1 (e.g., as described in Example 2), and screened for the presence of spirochetes (e.g., as described in Example 3). […] These cultures were then used to produce pellets for antimicrobial susceptibility testing (e.g., as described in Example 6). The antimicrobial susceptibility tests were then carried out on each sample (e.g., as described in Example 7) with the antimicrobials listed below in Table 5.
# Leptospira [2] = assay: Susceptibility testing of Leptospira isolated from a patient with symptoms of multiple sclerosis; settings: for Antibiotic Susceptibility Results, URINE: Leptospira culture from urine of multiple sclerosis patient; for Antibiotic Susceptibility Results, SERUM: Leptospira culture from serum of multiple sclerosis patient
# Description: This example describes the preparation of a pellet used for antimicrobial susceptibility testing of a culture sample. […] In order to form pellet, an aliquot of this culture sample is placed in a microcentrifuge tube along with 10% SDS solution, and centrifuged at 14,000 g to disrupt the spirochetes and maximize the number of available eptiopic sites. […] This inoculated alternative growth medium was then allowed to incubate in the closed micro centrifuge tube until a distinctive pellet was observed (typically 7-14 days).
# MICROSCAN antibiotic susceptibility microtiter plates were then inoculated with (e.g., 110 μl of) inoculum and allowed to incubate at 35° C. for 16-20 hours. The microtiter plates were then scanned for growth and respective sensitivity reaction (both the control well and the growth well).
# Borrelia = assay: Antibiotic susceptibility test (MICROSCAN or disc diffusion) of patient samples positive for Borrelia; settings: total isolates 519
# Excerpt: as §1, §2
# (§3) This Example describes the results for susceptibility tests that were performed on a large number of patient samples positive for either Borrelia or Leptospira. […] The results presented in Table 3 reveal the varied response of different types of spirochetes to different antibiotics.
# Leptospira [3] = assay: Antibiotic susceptibility test (MICROSCAN or disc diffusion) of patient samples positive for Leptospira; settings: total isolates 276
# Excerpt: as §1, §2, §3
# E. coli = assay: Antibiotic susceptibility test (MICROSCAN or disc diffusion), control organism E. coli; settings: total isolates 1
# A. lwoffii = assay: Antibiotic susceptibility test (MICROSCAN or disc diffusion), control organism A. lwoffii; settings: total isolates 1
# Tatumella = assay: Antibiotic susceptibility test (MICROSCAN or disc diffusion), control organism Tatumella; settings: total isolates 2
# Excerpt: as §1, §2, §3
# Y. entero gp. = assay: Antibiotic susceptibility test (MICROSCAN or disc diffusion), control organism Y. entero gp.; settings: total isolates 1
# Pseudomonas = assay: Antibiotic susceptibility test (MICROSCAN or disc diffusion), control organism Pseudomonas; settings: total isolates 1
Compound,RESULT (antibiotic susceptibility) (Treponema isolate),"Antibiotic Susceptibility Results, URINE (Leptospira [1])","Antibiotic Susceptibility Results, URINE (Leptospira [2])","Antibiotic Susceptibility Results, SERUM (Leptospira [1])","Antibiotic Susceptibility Results, SERUM (Leptospira [2])",further results
CC1(C)S[C@@H]2[C@H](NC(=O)[C@H](C(=O)O)c3ccsc3)C(=O)N2[C@H]1C(=O)O [Ticarcillin],Susceptible,–,–,–,–,–
Ampicillin/Sulbactam,Susceptible,–,–,–,–,–
CCn1cc(C(=O)O)c(=O)c2cc(F)c(N3CCNCC3)cc21 [Norfloxacin],–,Susceptible,Susceptible,–,–,–
CO/N=C(\C(=O)N[C@@H]1C(=O)N2C(C(=O)[O-])=C(C[N+]3(C)CCCC3)CS[C@H]12)c1csc(N)n1 [Cefepime],–,–,–,–,–,"Antibiotic Susceptibility Test Results, Borrelia (Borrelia): 49%; Antibiotic Susceptibility Test Results, Leptospira (Leptospira [3]): 54%; Antibiotic Susceptibility Test Results, E. coli (E. coli): 100%; Antibiotic Susceptibility Test Results, A. lwoffii (A. lwoffii): 100%; Antibiotic Susceptibility Test Results, Tatumella (Tatumella): 0%; Antibiotic Susceptibility Test Results, Y. entero gp. (Y. entero gp.): 100%; Antibiotic Susceptibility Test Results, Pseudomonas (Pseudomonas): 100%"
CN(C)[C@@H]1C(O)=C(C(N)=O)C(=O)[C@@]2(O)C(O)=C3C(=O)c4c(O)cccc4[C@@](C)(O)[C@H]3C[C@@H]12 [Tetracycline],Resistant,Resistant,Resistant,Resistant,Resistant,–
Trimethoprim/Sulfamethoxazole,Resistant,–,Susceptible,–,Susceptible,–
CO[C@H]1/C=C/O[C@@]2(C)Oc3c(C)c(O)c4c(O)c(c(/C=N/N5CCN(C)CC5)c(O)c4c3C2=O)NC(=O)/C(C)=C\C=C\[C@H](C)[C@H](O)[C@@H](C)[C@@H](O)[C@@H](C)[C@H](OC(C)=O)[C@@H]1C [Rifampin],–,Resistant,Resistant,Resistant,Resistant,–
CC[C@H]1OC(=O)[C@H](C)[C@@H](O[C@H]2C[C@@](C)(OC)[C@@H](O)[C@H](C)O2)[C@H](C)[C@@H](O[C@@H]2O[C@H](C)C[C@H](N(C)C)[C@H]2O)[C@](C)(OC)C[C@@H](C)C(=O)[C@H](C)[C@@H](O)[C@]1(C)O [Clarithromycin],–,Resistant,Resistant,Resistant,Resistant,–
Piperacillin/Tazobactam,–,Intermediate,Intermediate,Intermediate,Intermediate,"Antibiotic Susceptibility Test Results, Borrelia (Borrelia): 88%; Antibiotic Susceptibility Test Results, Leptospira (Leptospira [3]): 86%; Antibiotic Susceptibility Test Results, E. coli (E. coli): 100%; Antibiotic Susceptibility Test Results, Tatumella (Tatumella): 100%; Antibiotic Susceptibility Test Results, Y. entero gp. (Y. entero gp.): 100%; Antibiotic Susceptibility Test Results, Pseudomonas (Pseudomonas): 100%"
CC1(C)S[C@@H]2[C@H](NC(=O)[C@H](NC(=O)N3CCN(S(C)(=O)=O)C3=O)c3ccccc3)C(=O)N2[C@H]1C(=O)O [Mezlocillin],Susceptible,–,–,–,–,–
CO/N=C(\C(=O)N[C@@H]1C(=O)N2C(C(=O)O)=C(COC(N)=O)CS[C@H]12)c1ccco1 [Cefuroxime],–,Resistant,Resistant,Resistant,Resistant,"Antibiotic Susceptibility Test Results, Borrelia (Borrelia): 59%; Antibiotic Susceptibility Test Results, Leptospira (Leptospira [3]): 59%; Antibiotic Susceptibility Test Results, E. coli (E. coli): 100%; Antibiotic Susceptibility Test Results, Tatumella (Tatumella): 0%; Antibiotic Susceptibility Test Results, Y. entero gp. (Y. entero gp.): 100%"
CCC[C@@H]1C[C@@H](C(=O)N[C@@H]([C@H]2O[C@H](SC)[C@H](O)[C@@H](O)[C@H]2O)[C@H](C)Cl)N(C)C1 [Clindamycin],–,Resistant,Resistant,Resistant,Resistant,–
C[C@@H](O)[C@H]1C(=O)N2C(C(=O)O)=C(SCCN=CN)C[C@H]12 [Imipenem],–,–,Resistant,–,Resistant,"Antibiotic Susceptibility Test Results, Borrelia (Borrelia): 84%; Antibiotic Susceptibility Test Results, Leptospira (Leptospira [3]): 77%; Antibiotic Susceptibility Test Results, E. coli (E. coli): 100%; Antibiotic Susceptibility Test Results, A. lwoffii (A. lwoffii): 100%; Antibiotic Susceptibility Test Results, Tatumella (Tatumella): 100%; Antibiotic Susceptibility Test Results, Y. entero gp. (Y. entero gp.): 100%; Antibiotic Susceptibility Test Results, Pseudomonas (Pseudomonas): 100%"
CCN[C@@H]1C[C@H](N)[C@@H](O[C@H]2OC(CN)=CC[C@H]2N)[C@H](O)[C@H]1O[C@H]1OC[C@](C)(O)[C@H](NC)[C@H]1O [Netilmicin],Resistant,–,–,–,–,–
Penicillin,–,Resistant,–,Resistant,–,–
Trimethoprim Sulfate,–,Susceptible,–,Susceptible,–,–
CC1(C)S[C@@H]2[C@H](NC(=O)[C@H](N)c3ccccc3)C(=O)N2[C@H]1C(=O)O [Ampicillin],Susceptible,Resistant,Resistant,Resistant,Resistant,"Antibiotic Susceptibility Test Results, Borrelia (Borrelia): 61%; Antibiotic Susceptibility Test Results, Leptospira (Leptospira [3]): 54%; Antibiotic Susceptibility Test Results, E. coli (E. coli): 100%; Antibiotic Susceptibility Test Results, Tatumella (Tatumella): 100%; Antibiotic Susceptibility Test Results, Y. entero gp. (Y. entero gp.): 100%"
CC[C@H]1OC(=O)[C@H](C)[C@@H](O[C@H]2C[C@@](C)(OC)[C@@H](O)[C@H](C)O2)[C@H](C)[C@@H](O[C@@H]2O[C@H](C)C[C@H](N(C)C)[C@H]2O)[C@](C)(O)C[C@@H](C)CN(C)[C@H](C)[C@@H](O)[C@]1(C)O [Azithromycin],–,Resistant,Resistant,Resistant,Resistant,–
CC(=O)OCC1=C(C(=O)O)N2C(=O)[C@@H](NC(=O)Cc3cccs3)[C@H]2SC1 [Cephalothin],Susceptible,–,–,–,–,–
Cc1nnc(SCC2=C(C(=O)O)N3C(=O)[C@@H](NC(=O)Cn4cnnn4)[C@H]3SC2)s1 [Cefazolin],Resistant,–,–,–,–,–
CC[C@H]1OC(=O)[C@H](C)[C@@H](O[C@H]2C[C@@](C)(OC)[C@@H](O)[C@H](C)O2)[C@H](C)[C@@H](O[C@@H]2O[C@H](C)C[C@H](N(C)C)[C@H]2O)[C@](C)(O)C[C@@H](C)C(=O)[C@H](C)[C@@H](O)[C@]1(C)O [Erythromycin],–,Resistant,Resistant,Resistant,Resistant,–
